Results published in patent publication US7049311B1, “Pyrrolbenzodiazepines” (Spirogen Limited, priority 1998, dated 2006).
Several values for one entry are separate records, joined by “and”; a condition that tells them apart may be missing. Identical values can stand only once.

Legend:
[1] = tested on: Ovcar-3 (human ovarian tumour); assay: NCI human xenograft study; format: in vivo, mice
Protocol: (§1) These are carried out on nucle athymic mice with a disabled immune system. The human tumour tissue to be tested is implanted in their flanks, and whilst the control mouse receives no treatment, the others are subjected to varying doses of the test compound, which is administered intraperitoneally. The results are expressed as the toxicity of the compound, the amount of tumour growth, and the inhibition of growth.
(§2) Athymic nude mice bearing MDA-MB-435 xenografts (human mammary tumour), Ovcar-3 (human ovarian tumour), UACC-62 (human melanoma) or OVCAR-5 (human ovarian tumour) were treated at doses of 0.67 (high), 0.45 (middle) and 0.3 (low) mg/kg/injection given once every 4th day for a total of 3 doses (6 mice per dose level with 20 controls).
(§3) UP2001 (80) was evaluated by measuring the toxicity of the drug and its ability to retard tumour growth.
(§4) Toxicity represents the number of mice which died as a result of treatment. % T/C represents the width of the tumours in the “test” mice (T) (as measured with calipers) compared to control untreated mice (C) and presented as a percentage. % Growth Delay represents the increase in the amount of time taken for the tumors to reach an arbitrary size of 250 mg.

[2] = tested on: OVCAR-5 (human ovarian tumour); assay: NCI human xenograft study; format: in vivo, mice
Protocol: as §1, §2, §3, §4

[3] = tested on: UACC-62 (human melanoma); assay: NCI human xenograft study; format: in vivo, mice
Protocol: as §1, §2, §3, §4

[4] = tested on: MDA-MB-435 xenografts (human mammary tumour); assay: NCI human xenograft study; format: in vivo, mice
Protocol: as §1, §2, §3, §4

[5] = tested on: calf thymus DNA; assay: DNA helix melting temperature assay; format: binding
Protocol: The first assay, which is described in G. B. Jones, et al., Anti-Cancer Drug Des., 1990, 5, 249, which is incorporated herein by reference, determines the effect of the test compound on the helix melting temperature of DNA. This assay is designed to give an indication of the strength and extent of cross-linking of the DNA strands by the test compound (i.e. a measure of the stabilisation of the DNA upon ligand binding).
The melting temperature was determined for a 1:5 molar ratio of [ligand] [DNA], where the calf thymus DNA concentration is […] in aqueous sodium phosphate buffer (10 mM sodium phosphate+1 mM EDTA, pH 7.00±0.01). For calf thymus DNA at pH 7.00±0.01, the melting temperature is 67.83±0.06° C. (mean value from 30 separate determinations).

[6] = tested on: human CNS tumour SF-295; assay: NCI human xenograft study; format: in vivo, mice; conditions: 5 doses
Protocol: as §1
UP2001 (80) was also evaluated against the human CNS tumour SF-295. Athymic nude mice bearing SF-295 were treated at doses of 0.40, 0.27 and 0.18 mg/Kg by injection given intravenously once daily for a total of 5 doses.

[7] = tested on: A2780cisR; assay: Ovarian carcinoma cytotoxicity assay; format: cell-based, human; conditions: Homo sapiens, A2780cisR, 96 h, read-out: IC50 A2780cisR
Summary of the method: (§5)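 Cells attached overnight, then read 96 hours later by sulphorhodamine B staining of TCA-fixed cells, with absorbance at 540 nm. IC50 taken from concentration versus % absorbance relative to untreated wells; cisR lines are cisplatin-resistant.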

[8] = tested on: A2780; assay: Ovarian carcinoma cytotoxicity assay; format: cell-based, human; conditions: Homo sapiens, A2780, 96 h, read-out: IC50 A2780
Summary of the method: as §5

[9] = 0.3 mg/kg/injection once every 4th day, 3 doses
[10] = 0.3 mg/kg/injection once every 4th day, 3 doses, mice which died as a result of treatment
[11] = 0.3 mg/kg/injection, time for tumours to reach 250 mg
[12] = 0.45 mg/kg/injection once every 4th day, 3 doses
[13] = 0.45 mg/kg/injection once every 4th day, 3 doses, mice which died as a result of treatment
[14] = 0.45 mg/kg/injection, time for tumours to reach 250 mg
[15] = 0.67 mg/kg/injection once every 4th day, 3 doses
[16] = 0.67 mg/kg/injection once every 4th day, 3 doses, mice which died as a result of treatment
[17] = 0.67 mg/kg/injection, time for tumours to reach 250 mg
[18] = MDA-MB-435 xenografts, dose not given

C=C1C[C@H]2C=Nc3cc(OCCCOc4cc5c(cc4OC)C(=O)N4CC(=C)C[C@H]4C=N5)c(OC)cc3C(=O)N2C1 [UP2001 (80)]
% T/C Low [1, 9]: 46%
Toxicity Low [1, 10]: 0/6
% Growth Delay Low [1, 11]: 9%
% T/C Mid [1, 12]: 20%
Toxicity Mid [1, 13]: 0/6
% Growth Delay Mid [1, 14]: 73%
% T/C High [1, 15]: 7%
Toxicity High [1, 16]: 0/6
% Growth Delay High [1, 17]: 73%
% T/C Low ([2]; OVCAR-5, 0.3 mg/kg/injection once every 4th day, 3 doses): 38%
Toxicity Low ([2]; OVCAR-5, 0.3 mg/kg/injection once every 4th day, 3 doses, mice which died as a result of treatment): 0/6
% Growth Delay Low ([2]; OVCAR-5, 0.3 mg/kg/injection, time for tumours to reach 250 mg): 32%
% T/C Mid ([2]; OVCAR-5, 0.45 mg/kg/injection once every 4th day, 3 doses): 45%
Toxicity Mid ([2]; OVCAR-5, 0.45 mg/kg/injection once every 4th day, 3 doses, mice which died as a result of treatment): 0/6
% Growth Delay Mid ([2]; OVCAR-5, 0.45 mg/kg/injection, time for tumours to reach 250 mg): 28%
% T/C High ([2]; OVCAR-5, 0.67 mg/kg/injection once every 4th day, 3 doses): 52%
Toxicity High ([2]; OVCAR-5, 0.67 mg/kg/injection once every 4th day, 3 doses, mice which died as a result of treatment): 0
% Growth Delay High ([2]; OVCAR-5, 0.67 mg/kg/injection, time for tumours to reach 250 mg): 16%
tumour size reduction ([2]; OVCAR-5 xenografts, dose not given): approximately 50%
% T/C Low [3, 9]: 67%
Toxicity Low [3, 10]: 0/6
% Growth Delay Low [3, 11]: 43%
% T/C Mid [3, 12]: 28%
Toxicity Mid [3, 13]: 0/6
% Growth Delay Mid [3, 14]: 43%
% T/C High [3, 15]: 22%
Toxicity High [3, 16]: 0/6
% Growth Delay High [3, 17]: 43%
% T/C Low ([4]; MDA-MB-435, 0.3 mg/kg/injection once every 4th day, 3 doses): 3%
Toxicity Low ([4]; MDA-MB-435, 0.3 mg/kg/injection once every 4th day, 3 doses, mice which died as a result of treatment): 2/6
% Growth Delay Low ([4]; MDA-MB-435, 0.3 mg/kg/injection, time for tumours to reach 250 mg): 41%
% T/C Mid ([4]; MDA-MB-435, 0.45 mg/kg/injection once every 4th day, 3 doses): 3%
Toxicity Mid ([4]; MDA-MB-435, 0.45 mg/kg/injection once every 4th day, 3 doses, mice which died as a result of treatment): 1/6
% Growth Delay Mid ([4]; MDA-MB-435, 0.45 mg/kg/injection, time for tumours to reach 250 mg): 41%
% T/C High ([4]; MDA-MB-435, 0.67 mg/kg/injection once every 4th day, 3 doses): toxic
Toxicity High ([4]; MDA-MB-435, 0.67 mg/kg/injection once every 4th day, 3 doses, mice which died as a result of treatment): 3/6
% Growth Delay High ([4]; MDA-MB-435, 0.67 mg/kg/injection, time for tumours to reach 250 mg): 41%
delay in the time taken to reach tumour mass of 250 mg [4, 18]: 41%
tumour growth in treated mice as % of the tumour growth in the control population [4, 18]: 3%
Induced ΔTa after incubation at 37° C. for 0 h ([5]; [PBD]:[DNA] ratio of 1:5, calf thymus DNA, pH 7.00, 0 h): 25.7 °C
Induced ΔTa after incubation at 37° C. for 4 h ([5]; [PBD]:[DNA] ratio of 1:5, calf thymus DNA, pH 7.00, 4 h): 31.9 °C
Induced ΔTa after incubation at 37° C. for 18 h ([5]; [PBD]:[DNA] ratio of 1:5, calf thymus DNA, pH 7.00, 18 h): 33.6 °C
share of stabilising effect provided without prior incubation ([5]; calf thymus DNA melting): 60-80%
fold more effective than DSB-120 (comparative ΔTm curves) ([5]; on a concentration basis): ≥ 10 fold
% T/C Low ([6]; 0.18 mg/Kg intravenously once daily): 0%
Toxicity Low ([6]; 0.18 mg/Kg intravenously once daily, mice dying): two and 2/6
Tumour Free Low ([6]; 0.18 mg/Kg intravenously once daily, surviving mice tumour free on day 27): 3 out of 4 and 3/4
% T/C Med ([6]; 0.27 mg/Kg intravenously once daily): 0%
Toxicity Med ([6]; 0.27 mg/Kg intravenously once daily, mice dying): 1 and 1/6
Tumour Free Med ([6]; 0.27 mg/Kg intravenously once daily, surviving mice tumour free on day 27): all the surviving mice were tumour free and 5/5
% T/C High ([6]; 0.40 mg/Kg intravenously once daily): 0%
Toxicity High ([6]; 0.40 mg/Kg intravenously once daily, mice dying): 2 and 2/6
Tumour Free High ([6]; 0.40 mg/Kg intravenously once daily, surviving mice tumour free on day 27): all the surviving mice were tumour free and 4/4
IC50 [7]: 24 pM
IC50 [8]: 23 pM
